Data from PubChem BioAssay (NCI).
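96-well plates; 48 h exposure; 5 concentrations. Endpoints by linear interpolation between flanking doses. Not reached: highest tested concentration assigned. Here, GI50 denotes the concentration required for 50% inhibition of growth. TGI denotes the concentration required for complete inhibition of growth.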

Tests used:
Assay in all cases: NCI-60 cell line screen, 48 h
HT29 colon = tested on: HT29 colon
K-562 leukemia = tested on: K-562 leukemia
SR leukemia = tested on: SR leukemia
OVCAR-4 ovarian = tested on: OVCAR-4 ovarian
SF-268 CNS = tested on: SF-268 CNS
SF-539 CNS = tested on: SF-539 CNS
A498 renal = tested on: A498 renal
SK-MEL-5 melanoma = tested on: SK-MEL-5 melanoma
NCI-H522 lung = tested on: NCI-H522 lung
NCI/ADR-RES ovarian = tested on: NCI/ADR-RES ovarian

Compound | TGI (HT29 colon) [µM] | TGI (K-562 leukemia) [µM] | TGI (SR leukemia) [µM] | TGI (OVCAR-4 ovarian) [µM] | TGI (SF-268 CNS) [µM] | TGI (SF-539 CNS) [µM] | TGI (A498 renal) [µM] | TGI (SK-MEL-5 melanoma) [µM] | TGI (NCI-H522 lung) [µM] | GI50 (NCI/ADR-RES ovarian) [µM] | TGI (NCI/ADR-RES ovarian) [µM] | GI50 (HT29 colon) [µM] | GI50 (NCI-H522 lung) [µM] | GI50 (K-562 leukemia) [µM] | GI50 (OVCAR-4 ovarian) [µM] | GI50 (SF-268 CNS) [µM] | GI50 (SF-539 CNS) [µM] | GI50 (A498 renal) [µM] | GI50 (SK-MEL-5 melanoma) [µM] | GI50 (SR leukemia) [µM]
COc1ccc(/C=c2\sc3nnc(CCC(=O)Nc4cccc(C(F)(F)F)c4)n3c2=O)cc1 | > 100 | > 100 | 75.8 | > 100 | > 100 | > 100 | > 100 | > 100 | – | – | – | – | – | – | – | – | – | – | – | –
O=S1c2ccccc2N=C(c2ccc3ccccc3c2)CC1c1ccccc1F (centres undefined) | > 100 | > 100 | – | > 100 | > 100 | > 100 | 79.7 | > 100 | > 100 | – | – | – | – | – | – | – | – | – | – | –
O=C1NC(=O)C(N2CCc3ccccc32)=C1c1ccc(Cl)cc1 | > 25 | > 25 | – | > 25 | > 25 | > 25 | > 25 | > 25 | > 25 | > 25 | > 25 | > 25 | > 25 | > 25 | > 25 | > 25 | > 25 | > 22.4 | > 23.2 | –
Nc1nc2c(c(=O)[nH]1)N=C(COP(=O)(O)OP(=O)(O)O)CN2 | > 100 | > 100 | > 100 | – | > 100 | > 100 | > 100 | > 100 | > 100 | – | > 100 | – | – | – | – | – | – | – | – | –
CC1=C(C(=O)Nc2cccc(C(F)(F)F)c2)C(c2ccccc2F)C(C(=O)Nc2cccc(C(F)(F)F)c2)=C(C)N1 | 11.5 | 18.6 | – | 14 | – | 23.8 | 24.3 | 18 | 17.5 | – | – | – | – | – | – | – | – | – | – | –
CN(C(=O)C12C3C4C1C1C2C3C41C(=O)N(C)C(C)(C)C)C(C)(C)C (centres undefined) | > 50 | > 50 | > 50 | – | > 50 | > 50 | > 50 | > 50 | > 50 | – | – | – | – | – | – | – | – | – | – | –
O=[N+]([O-])c1ccc(N/N=C/c2ccccc2O)nc1 | > 100 | – | – | > 100 | > 100 | > 100 | > 100 | > 100 | > 100 | 0.373 | > 100 | 0.975 | 0.289 | – | 0.408 | 1.26 | 2.68 | 63.4 | 1.61 | –
CC(C)(C)C1CCP(=O)(c2ccccc2)CC1 (centres undefined) | > 100 | > 100 | > 100 | > 100 | – | > 100 | > 100 | > 100 | > 100 | – | – | – | – | – | – | – | – | – | – | –
O=c1[nH]cc(CO)c(=O)[nH]1 | > 100 | > 100 | > 100 | – | > 100 | > 100 | > 100 | > 100 | > 100 | > 100 | > 100 | > 100 | > 100 | > 100 | – | > 100 | > 100 | > 100 | > 100 | > 100
Cc1nn2c(=O)n(-c3cccc(-n4nnc5c(-c6ccccc6)c(C)nn5c4=O)c3C)nnc2c1-c1ccccc1 | > 100 | > 100 | 55.8 | 53.7 | > 100 | 64 | > 100 | 33.8 | 33.2 | – | – | – | – | – | – | – | – | – | – | –
Cc1cc2oc(=O)c(Cl)c(Cl)c2c(C)c1Cl | 22.8 | 4.39 | – | 15.6 | 11.5 | 21.4 | 34 | 19.2 | 28.3 | – | 38.4 | – | – | – | – | – | – | – | – | –
O=C(CCCCCNC1=CC(=O)c2ccccc2C1=O)NCCC[Te]c1ccccc1 | 1.48 | 3.83 | – | 7.59 | 1.41 | 2.15 | 1.66 | 2.67 | 81.5 | 0.425 | 4.62 | 0.377 | 1.75 | 0.72 | 2.21 | 0.359 | 0.618 | 0.302 | 1.37 | –
Cc1ccc(NC(C(=O)c2ccccc2)c2ccccc2)cc1 (centres undefined) | – | > 100 | 52.9 | > 100 | 14.2 | > 100 | 15.5 | 14.5 | – | 18.8 | > 100 | – | – | 3.07 | 3.93 | 3.1 | 13 | 2.91 | 2.84 | 4.26
S=C(Nc1ccc(Cl)cc1)SC1CCCCC1 | 50.9 | > 100 | > 100 | > 100 | 84.9 | 61.3 | – | 30.5 | 44.6 | – | > 100 | – | – | – | – | – | – | – | – | –
COc1cc(-c2ccccc2)c(OC)cc1CCl | > 100 | > 100 | – | > 100 | > 100 | > 100 | > 100 | > 100 | > 100 | – | – | – | – | – | – | – | – | – | – | –
Cc1ccc(C)c(NC(=O)C(=O)CC(=O)c2cccc3ccccc23)c1 | > 100 | > 100 | > 100 | > 100 | > 100 | > 100 | > 100 | > 100 | > 100 | – | – | – | – | – | – | – | – | – | – | –
C=C(CS(=O)(=O)c1ccccc1)C(=O)OCC | 23.3 | 35 | – | – | 40 | 33.2 | – | – | 12.9 | – | – | – | – | – | – | – | – | – | – | –
COc1cc(C2CC(=O)c3c(C)nn(-c4nc5ccccc5[nH]4)c3C2)cc(OC)c1OC (centres undefined) | > 100 | – | > 100 | – | > 100 | – | > 100 | > 100 | > 100 | > 100 | > 100 | > 100 | 2.64 | – | – | 8.01 | – | 7.06 | > 100 | > 100
NC(Cn1ccc(=O)c(O)c1)C(=O)O (centres undefined) | > 100 | – | > 100 | > 100 | > 100 | > 100 | > 100 | > 100 | > 100 | – | > 100 | – | – | – | – | – | – | – | – | –
COc1ccc2oc(-c3cc4cc(OC)ccc4o3)cc2c1 | – | > 100 | – | > 100 | > 100 | – | – | > 100 | > 100 | – | – | – | – | – | – | – | – | – | – | –
NC(=O)c1ccccc1NC(=O)C(=O)Nc1n[nH]c(N)n1 | > 100 | > 100 | > 100 | > 100 | – | > 100 | > 100 | > 100 | > 100 | – | – | – | – | – | – | – | – | – | – | –
